In ChEMBL document CHEMBL3352758, “Structural Analysis of the Binding of Type I, I1/2, and II Inhibitors to Eph Tyrosine Kinases” (ACS Med Chem Lett, 2015):

Molecular target: T1, Ephrin type-B receptor 4 (Homo sapiens, UniProt P54760)
T1 sequence (P54760 whole entry): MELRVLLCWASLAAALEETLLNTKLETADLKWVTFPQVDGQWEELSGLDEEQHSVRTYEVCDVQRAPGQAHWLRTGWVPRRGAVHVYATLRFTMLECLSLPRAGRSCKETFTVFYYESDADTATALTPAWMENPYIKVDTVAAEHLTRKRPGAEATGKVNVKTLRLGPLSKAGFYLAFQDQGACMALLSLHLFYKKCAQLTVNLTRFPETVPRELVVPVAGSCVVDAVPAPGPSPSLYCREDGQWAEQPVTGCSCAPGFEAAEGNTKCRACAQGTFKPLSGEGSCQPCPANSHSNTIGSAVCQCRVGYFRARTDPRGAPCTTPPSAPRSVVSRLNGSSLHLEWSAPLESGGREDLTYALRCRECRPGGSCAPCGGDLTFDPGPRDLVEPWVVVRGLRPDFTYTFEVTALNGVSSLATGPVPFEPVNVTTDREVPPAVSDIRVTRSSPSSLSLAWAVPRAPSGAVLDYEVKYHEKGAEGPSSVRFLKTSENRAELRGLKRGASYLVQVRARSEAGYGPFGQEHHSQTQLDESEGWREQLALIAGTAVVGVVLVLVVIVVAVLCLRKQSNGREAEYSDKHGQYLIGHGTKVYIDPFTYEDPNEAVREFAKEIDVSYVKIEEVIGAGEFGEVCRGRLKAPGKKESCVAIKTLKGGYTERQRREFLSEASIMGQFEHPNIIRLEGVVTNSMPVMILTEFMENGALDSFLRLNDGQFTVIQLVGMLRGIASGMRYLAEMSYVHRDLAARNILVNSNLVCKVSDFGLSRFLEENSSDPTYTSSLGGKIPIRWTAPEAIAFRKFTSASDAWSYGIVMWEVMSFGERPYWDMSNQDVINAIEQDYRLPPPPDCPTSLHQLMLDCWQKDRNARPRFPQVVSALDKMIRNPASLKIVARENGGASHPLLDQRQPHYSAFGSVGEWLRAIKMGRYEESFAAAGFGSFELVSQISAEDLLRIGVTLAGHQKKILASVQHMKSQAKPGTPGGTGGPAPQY
Test: Inhibition of EphB4 (unknown origin) by FRET-based enzymatic assay in presence of 30 uM ATP; call rule not given here

Compound: Cc1ccc(-c2csc(NC(=O)CCCC(=O)O)c2C(N)=O)cc1C
- IC50 (read-out: IC50): 8 µM

Compound: Cc1ccc(-n2nc(C(C)(C)C)cc2NC(=O)Nc2ccc(OCCN3CCOCC3)c3ccccc23)cc1 [DORAMAPIMOD]
- IC50: Not Active
